In patent US4379917A, “6"-(Substituted)-apramycin antibiotic derivatives and intermediates and starting materials therefor” (Eli Lilly and Company, priority 1981, dated 1983):
≈ marks a conversion by molar mass, not a printed value. Read-outs that look alike come from different tables or passages of the source.

How the values were obtained:
[1] = tested on: Pseudomonas aeruginosa X239; test: Subcutaneous therapy of Pseudomonas aeruginosa X239 infections in mice; assay type: in vivo; settings: X239, sc, 2 subcutaneous doses at 1 and 5 hours post infection, dose to protect 50 percent of test animals, read-out: Effective Dose (ED50)
Method: Table III illustrates the effective dose (ED50, effective dose to protect 50 percent of the test animals) for representative compounds of this invention against an experimental bacterial infection in mice. | *mg/kg × 2 subcutaneous doses at 1 and 5 hours post infections The ED50 values were determined as described by W. E. Wick et al., Journal of Bacteriolocy, 81 [No. 2], 233-235 (1961).

[2] = tested on: Pseudomonas aeruginosa PI23; test: MIC by standard agar dilution test; assay type: cell-based; settings: PI23, read-out: Minimum Inhibitory Concentration
[3] = tested on: Pseudomonas aeruginosa Ps9; test: MIC by standard agar dilution test; assay type: cell-based; settings: PS9, read-out: Minimum Inhibitory Concentration
[4] = tested on: Proteus morganii PR1; test: MIC by standard agar dilution test; assay type: cell-based; settings: Morganella morganii, PR1, read-out: Minimum Inhibitory Concentration
[5] = tested on: Pseudomonas aeruginosa X528; test: MIC by standard agar dilution test; assay type: cell-based; settings: X528, read-out: Minimum Inhibitory Concentration
[6] = tested on: Pseudomonas aeruginosa 4276; test: MIC by standard agar dilution test; assay type: cell-based; settings: Pseudomonas aeruginosa, 4276, read-out: Minimum Inhibitory Concentration
[7] = tested on: Staphylococcus aureus 3055; test: MIC by standard agar dilution test; assay type: cell-based; settings: Staphylococcus aureus, 3055, read-out: Minimum Inhibitory Concentration
[8] = tested on: Escherichia coli EC14; test: MIC by standard agar dilution test; assay type: cell-based; settings: EC14, read-out: Minimum Inhibitory Concentration
[9] = tested on: Pseudomonas aeruginosa SF-2; test: MIC by standard agar dilution test; assay type: cell-based; settings: SF2, read-out: Minimum Inhibitory Concentration
[10] = tested on: Serratia marcescens SE2; test: MIC by standard agar dilution test; assay type: cell-based; settings: SE2, Table 1, agar dilution, read-out: Minimum Inhibitory Concentration
[11] = tested on: Bordetella bronchiseptica 16; test: MIC by standard agar dilution test; assay type: cell-based; settings: Bordetella bronchiseptica, 16, read-out: Minimum Inhibitory Concentration
[12] = tested on: Enterobacter cloacae EB24; test: MIC by standard agar dilution test; assay type: cell-based; settings: EB24, Table 1, agar dilution, read-out: Minimum Inhibitory Concentration
[13] = tested on: Serratia marcescens SE3; test: MIC by standard agar dilution test; assay type: cell-based
[14] = tested on: Proteus inconstans PV25; test: MIC by standard agar dilution test; assay type: cell-based; settings: Providencia alcalifaciens, PV25; Table 1; agar dilution; read-out: Minimum Inhibitory Concentration
[15] = tested on: Pseudomonas aeruginosa Ps25; test: MIC by standard agar dilution test; assay type: cell-based; settings: PS25, read-out: Minimum Inhibitory Concentration
[16] = tested on: Streptococcus faecalis X66; test: MIC by standard agar dilution test; assay type: cell-based; settings: Enterococcus faecalis, X66, read-out: Minimum Inhibitory Concentration
[17] = tested on: Citrobacter freundii CF17; test: MIC by standard agar dilution test; assay type: cell-based; settings: CF17, Table II, agar dilution, read-out: Minimum Inhibitory Concentration
[18] = tested on: Enterobacter aerogenes EB6; test: MIC by standard agar dilution test; assay type: cell-based; settings: Klebsiella aerogenes, EB6, read-out: Minimum Inhibitory Concentration
[19] = tested on: Klebsiella pneumoniae KL14; test: MIC by standard agar dilution test; assay type: cell-based; settings: KL14, Table II, agar dilution, read-out: Minimum Inhibitory Concentration
[20] = tested on: Serratia marcescens X99; test: MIC by standard agar dilution test; assay type: cell-based; settings: X99, Table 1, agar dilution, read-out: Minimum Inhibitory Concentration
[21] = tested on: Proteus morganii PR2; test: MIC by standard agar dilution test; assay type: cell-based; settings: Morganella morganii, PR2; Table 1; agar dilution; read-out: Minimum Inhibitory Concentration
[22] = tested on: Salmonella typhosa SA12; test: MIC by standard agar dilution test; assay type: cell-based; settings: Salmonella enterica, read-out: Minimum Inhibitory Concentration
[23] = tested on: Enterobacter cloacae EN453; test: MIC by standard agar dilution test; assay type: cell-based; settings: EN453, Table 1, agar dilution, read-out: Minimum Inhibitory Concentration
[24] = tested on: Pseudomonas aeruginosa X239; test: MIC by standard agar dilution test; assay type: cell-based; settings: X239, read-out: Minimum Inhibitory Concentration, Table 1
[25] = tested on: Salmonella typhimurium; test: MIC by standard agar dilution test; assay type: cell-based; settings: Salmonella enterica, Table II, agar dilution, read-out: Minimum Inhibitory Concentration
[26] = tested on: Klebsiella pneumoniae KL2; test: MIC by standard agar dilution test; assay type: cell-based; settings: KL2, Table 1, agar dilution, read-out: Minimum Inhibitory Concentration
[27] = tested on: Staphylococcus aureus 3074; test: MIC by standard agar dilution test; assay type: cell-based; settings: Table II, read-out: Minimum Inhibitory Concentration
Description: (§1) The antibacterial activity of the antibiotic compounds of this invention is illustrated by the following in vitro and in vivo test data obtained with representative compounds. In Tables I and II the minimum inhibitory concentration (MIC) for representative compounds against a wide range of gram-positive and gram-negative bacteria is presented. The MIC values were obtained by the standard agar dilution test.

[28] = tested on: Erwinia amylovora; test: MIC by standard agar dilution test; assay type: cell-based; settings: Table II, read-out: Minimum Inhibitory Concentration
Description: as §1

[29] = tested on: Proteus morganii PR15; test: MIC by standard agar dilution test; assay type: cell-based; settings: Morganella morganii, PR15, read-out: Minimum Inhibitory Concentration
[30] = tested on: Enterobacter aerogenes EB17; test: MIC by standard agar dilution test; assay type: cell-based; settings: Klebsiella aerogenes, EB17; Table II; agar dilution; read-out: Minimum Inhibitory Concentration
[31] = tested on: Pseudomonas solanacearum X185; test: microbe, parasite or virus in culture; assay type: cell-based; settings: Ralstonia solanacearum, X185, read-out: Minimum Inhibitory Concentration
[32] = tested on: Pseudomonas aeruginosa Ps15; test: MIC by standard agar dilution test; assay type: cell-based; settings: PS15, read-out: Minimum Inhibitory Concentration
[33] = tested on: Pseudomonas aeruginosa X48; test: MIC by standard agar dilution test; assay type: cell-based; settings: X48, read-out: Minimum Inhibitory Concentration

Question: `CN[C@@H]1[C@@H](O[C@H]2O[C@H](CN)[C@@H](N)[C@H](O)[C@H]2O)O[C@H]2C[C@@H](N)[C@@H](O[C@H]3[C@H](O)[C@@H](O)[C@H](N)C[C@@H]3N)O[C@@H]2[C@@H]1O` [Test Compound 5, 6"-Amino-6"-Deoxyapramycin] was tested. Which ED50 [1] did it give?
Answer: 15 mg/kg

Question: What about the MIC [2] of the same molecule?
Answer: > 128 µg/mL

Question: What about the MIC [3] of the same molecule?
Answer: 128 µg/mL (≈ 238 µM)

Question: What about the MIC [4] of the same molecule?
Answer: 16 µg/mL (≈ 29.7 µM)

Question: And the MIC [5]?
Answer: 64 µg/mL (≈ 119 µM)

Question: And the MIC [6]?
Answer: 64 µg/mL (≈ 119 µM)

Question: What about the MIC [7] of the same molecule?
Answer: 1 µg/mL (≈ 1.86 µM)

Question: And the MIC [8]?
Answer: 16 µg/mL (≈ 29.7 µM)

Question: And the MIC [9]?
Answer: 32 µg/mL (≈ 59.4 µM)

Question: What about the MIC [10] of the same molecule?
Answer: 8 µg/mL (≈ 14.9 µM)

Question: And the MIC [11]?
Answer: 32 µg/mL (≈ 59.4 µM)

Question: What about the MIC [12] of the same molecule?
Answer: 8 µg/mL (≈ 14.9 µM)

Question: And the MIC ([13]; SE3, Table 1, read-out: Minimum Inhibitory Concentration)?
Answer: 8 µg/mL (≈ 14.9 µM)

Question: What about the MIC ([13]; SE3, read-out: Minimum Inhibitory Concentration, Table II) of the same molecule?
Answer: 16 µg/mL (≈ 29.7 µM)

Question: What about the MIC [14] of the same molecule?
Answer: 8 µg/mL (≈ 14.9 µM)

Question: What about the MIC [15] of the same molecule?
Answer: 32 µg/mL (≈ 59.4 µM)

Question: And the MIC [16]?
Answer: 32 µg/mL (≈ 59.4 µM)

Question: What about the MIC [17] of the same molecule?
Answer: 8 µg/mL (≈ 14.9 µM)

Question: What about the MIC [18] of the same molecule?
Answer: 16 µg/mL (≈ 29.7 µM)

Question: And the MIC [19]?
Answer: 8 µg/mL (≈ 14.9 µM)

Question: What about the MIC [20] of the same molecule?
Answer: 8 µg/mL (≈ 14.9 µM)

Question: What about the MIC [21] of the same molecule?
Answer: 8 µg/mL (≈ 14.9 µM)

Question: And the MIC [22]?
Answer: 16 µg/mL (≈ 29.7 µM)

Question: And the MIC [23]?
Answer: 8 µg/mL (≈ 14.9 µM)

Question: And the MIC [24]?
Answer: 32 µg/mL (≈ 59.4 µM)

Question: And the MIC [25]?
Answer: 8 µg/mL (≈ 14.9 µM)

Question: What about the MIC [26] of the same molecule?
Answer: 8 µg/mL (≈ 14.9 µM)

Question: What about the MIC [27] of the same molecule?
Answer: 4 µg/mL (≈ 7.43 µM)

Question: And the MIC [28]?
Answer: 4 µg/mL (≈ 7.43 µM)

Question: What about the MIC [29] of the same molecule?
Answer: 32 µg/mL (≈ 59.4 µM)

Question: And the MIC [30]?
Answer: 8 µg/mL (≈ 14.9 µM)

Question: And the MIC [31]?
Answer: 4 µg/mL (≈ 7.43 µM)

Question: What about the MIC [32] of the same molecule?
Answer: 32 µg/mL (≈ 59.4 µM)

Question: And the MIC [33]?
Answer: 32 µg/mL (≈ 59.4 µM)
